What was measured:
[1] = tested on: Cercospora sojina (CERCSO); assay: Use example 7: microtest, growth of Cercospora sojina (CERCSO); format: cell-based; conditions: relative growth vs compound-free control (100%), 7 days
Method: (§1) The active compounds were formulated separately as a stock solution having a concentration of 10000 ppm in dimethyl sulfoxide. The stock solutions were mixed according to the ratio, pipetted onto a micro titer plate (MTP) and diluted with water to the stated concentrations. A spore suspension of one of the following fungal plant pathogens in aqueous bio malt solution • was then added for the respective use example: • Use example 5: Alternaria solani (ALTESO) • Use example 6: Botrytis cinerea (BOTRCI) • Use example 7: Cercospora sojina (CERCSO) • Use example 8: Colletotrichum orbiculare (COLLLA) • Use example 9: Leptosphaeria nodorum (LEPTNO) • Use example 10: Drechslera teres (PYRNTE) containing the amino acid substitution F129L in the mitochondrial cytochrome b protein conferring resistance to Qo inhibitors • Use example 11: Sclerotinia sclerotiorum (SCLESC), solute with ultrasonic from a filter membrane
(§2) The plates were placed in a water vapor-saturated chamber at a temperature of 18° C. Using an absorption photometer, the MTPs were measured at 405 nm 7 days after the inoculation.
(§3) The measured parameters were compared to the growth of the active compound-free control variant (100%) and the fungus-free blank value to determine the relative growth in % of the pathogens in the respective active compounds.

[2] = tested on: Botrytis cinerea (BOTRCI); assay: Use example 6: microtest, growth of Botrytis cinerea (BOTRCI); format: cell-based; conditions: 0.5 ppm; relative growth vs compound-free control (100%), 7 days
Method: as §1, §2, §3

[3] = tested on: Drechslera teres (PYRNTE) containing the amino acid substitution F129L in the mitochondrial cytochrome b protein; assay: Use example 10: microtest, growth of Drechslera teres (PYRNTE) F129L; format: cell-based; conditions: 125 ppm, relative growth vs compound-free control (100%), 7 days; for Growth (%) PYRNTE F129L Use ex. 10: Table 13
Method: as §1, §2, §3

[4] = tested on: Colletotrichum orbiculare (COLLLA); assay: Use example 8: microtest, growth of Colletotrichum orbiculare (COLLLA); format: cell-based; conditions: relative growth vs compound-free control (100%); for Growth (%) COLLLA Use Ex. 8: 125 ppm; for Growth (%) COLLLA Use Ex. 8 / Growth (%) COLLLA Use ex. 8: 7 days; for Growth (%) COLLLA Use ex. 8: 8 ppm
Method: as §1, §2, §3

[5] = tested on: Leptosphaeria nodorum (LEPTNO); assay: Use example 9: microtest, growth of Leptosphaeria nodorum (LEPTNO); format: cell-based; conditions: relative growth vs compound-free control (100%), 7 days
Method: as §1, §2, §3

[6] = tested on: Phakopsora pachyrhizi containing the amino acid substitution F129L in the mitochondrial cytochrome b protein; assay: Use Example 2: protective control of soybean rust on soybeans (PHAKPA P6); format: in vivo; conditions: inoculated six days after spraying, % diseased leaf area
How it was run: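 Compound in acetone and/or DMSO with Wettol (99:1), diluted with water, was sprayed to run-off on potted soybean seedlings. After six days at 23–27°C and 60–80% RH, plants were inoculated with a Qo-resistant F129L strain and held 24 h at about 95% RH. Percent diseased leaf area was scored visually after up to 14 days.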

Puccinia recondita [7] = assay: Use Example 3: curative control of brown rust on wheat (PUCCRT K4); format: in vivo; conditions: % diseased leaf area
How it was run: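 Wheat seedlings inoculated with Puccinia recondita spores, held 24 h at 95–99% RH, 20–24° C in dark, then 3 days in greenhouse before spraying to run-off (curative). Compound in acetone/DMSO–Wettol–water. After 5–7 further days at 20–24° C, 65–70% RH, % diseased leaf area scored visually.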

[8] = tested on: Phakopsora pachyrhizi containing the amino acid substitution F129L in the mitochondrial cytochrome b protein; assay: Use Example 1: protective control of soybean rust on soybeans (PHAKPA P2); format: in vivo; conditions: inoculated 2 days after spraying, % diseased leaf area
How it was run: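 Soybean seedling leaves sprayed to run-off with compound in acetone/DMSO–Wettol–water at the stated concentration, kept 2 days at 23-27° C, then inoculated with Qo-inhibitor-resistant F129L P. pachyrhizi. After 24 h at ~95% RH, 20-24° C, and up to 14 days in greenhouse, % diseased leaf area scored visually.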

Puccinia recondita [9] = assay: Use Example 4: preventative control of brown rust on wheat (PUCCRT P7); format: in vivo; conditions: inoculated seven days after spraying, % diseased leaf area
How it was run: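 First two leaves of potted wheat seedlings sprayed to run-off with compound in acetone/DMSO–emulsifier–water, then inoculated with Puccinia recondita spores seven days later. Plants held 24 h dark at 95–99% RH and 20–24 °C, then 9–11 days in greenhouse; diseased leaf area (%) scored visually.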

[10] = tested on: Alternaria solani (ALTESO); assay: Use example 5: microtest, growth of Alternaria solani (ALTESO); format: cell-based; conditions: 0.125 ppm; relative growth vs compound-free control (100%), 7 days after inoculation
Method: as §1, §2, §3

[11] = tested on: Sclerotinia sclerotiorum (SCLESC); assay: Use example 11: microtest, growth of Sclerotinia sclerotiorum (SCLESC); format: cell-based; conditions: 8 ppm; relative growth vs compound-free control (100%), 7 days after inoculation
Method: as §1, §2, §3

SMILES	% PHAKPA (F129L) Disease level P6 at 4 ppm [6] [%]	% PHAKPA (F129L) Disease level P6 at 16 ppm [6] [%]	% PUCCRT Disease level K4 at 4 ppm (Puccinia recondita [7]) [%]	% PUCCRT Disease level K4 at 16 ppm (Puccinia recondita [7]) [%]	% PHAKPA (F129L) Disease level P2 at 4 ppm [8] [%]	% PHAKPA (F129L) Disease level P2 at 16 ppm [8] [%]	% PUCCRT Disease level P7 at 4 ppm (Puccinia recondita [9]) [%]	% PUCCRT Disease level P7 at 16 ppm (Puccinia recondita [9]) [%]	other results
COC/C(=N\OCc1c(C)cccc1/C(=N\OC)C(=O)OC)c1ccc(Cl)cc1 [I.1-A-83, reference compound]	–	–	–	–	–	–	–	–	Growth (%) CERCSO Use Ex. 7 ([1]; 31 ppm): 83%; Growth (%) BOTRCI Use Ex. 6 [2]: 53%; Growth (%) PYRNTE F129L Use Ex. 10 ([3]; Table 7): 23%
CO/C=C(/C(=O)OC)c1cccc(C)c1CO/N=C(\COC)c1c(F)cc(F)cc1F [I.2-A-43860, reference compound]	–	–	–	–	–	–	–	–	Growth (%) COLLLA Use Ex. 8 [4]: 43%; Growth (%) CERCSO Use Ex. 7 ([1]; 125 ppm, Table 9): 90%; Growth (%) LEPTNO Use Ex. 9 ([5]; 125 ppm, Table 9): 64%
CNC(=O)/C(=N/OC)c1cccc(C)c1CO/N=C(\COC)c1c(F)cc(F)cc1F [I.3-A-43860, reference compound]	–	–	–	–	–	–	–	–	Growth (%) COLLLA Use ex. 8 [4]: 62%; Growth (%) PYRNTE F129L Use ex. 10 [3]: 36%
COC/C(=N\OCc1c(Cl)cccc1/C(=N\OC)C(=O)OC)c1ccc(F)cc1 [compound 1, Methyl (2E)-2-[3-chloro-2-[[(Z)-[1-(4-fluorophenyl)-2-methoxy-ethylidene]amino]oxymethyl]phenyl]-2-methoxyimino-acetate]	57	11	87	77	20	1	53	23	Growth (%) ALTESO Use ex. 5 [10]: 73%; Growth (%) SCLESC Use ex. 11 [11]: 72%
CNC(=O)/C(=N/OC)c1cccc(Cl)c1CO/N=C(\COC)c1ccccc1 [compound 4, (2E)-2-[3-chloro-2-[[(Z)-(2-methoxy-1-phenyl-ethylidene)amino]oxymethyl]phenyl]-2-methoxyimino-N-methyl-acetamide]	–	–	77	9	–	–	17	4	Growth at 2 ppm (%) COLLLA Use ex. 8 ([4]; 2 ppm, 7 days after inoculation): 29%
CO/C=C(/C(=O)OC)c1cccc(Cl)c1CO/N=C(\COC)c1c(F)cc(F)cc1F [compound 12, Methyl-(E)-2-[3-chloro-2-[[(Z)-[2-methoxy-1-(2,4,6-trifluorophenyl)ethylidene]amino]oxymethyl]phenyl]-3-methoxy-prop-2-enoate]	4	0	23	18	2	0	17	9	Growth (%) COLLLA Use Ex. 8 [4]: 20%
CO/C=C(/C(=O)OC)c1cccc(F)c1CO/N=C(\COC)c1ccc(F)cc1 [compound 17]	17	2	53	6	8	0	37	8	Growth at 125 ppm (%) LEPTNO Use ex. 9 ([5]; Table 10): 0%
CNC(=O)/C(=N/OC)c1cccc(Cl)c1CO/N=C(\COC)c1c(F)cc(F)cc1F [compound 31]	3	0	40	7	0	0	17	4	Growth (%) COLLLA Use ex. 8 [4]: 34%; Growth (%) PYRNTE F129L Use ex. 10 [3]: 21%

— patent publication US20260165323A1, “USE OF STROBILURIN TYPE COMPOUNDS FOR COMBATING PHYTOPATHOGENIC FUNGI CONTAINING AN AMINO ACID SUBSTITUTION F129L IN THE MITOCHONDRIAL CYTOCHROME B PROTEIN CONFERRING RESISTANCE TO QO […]” (priority 2022, published 2026)
